Results: US11510908B2, “Protein translation inhibitors and uses thereof” (University of Maryland, Baltimore, priority 2019, dated 2022)
pEC50, pIC50: −log10 of the molar value.

What was measured:
hnRNP A18 RRM = molecular target: T1, hnRNP A18 RRM (Homo sapiens, UniProt Q14011); assay: NMR HSQC/TROSY chemical shift perturbation screen; format: binding; conditions: 150 μM hnRNP A18, excess compound, 298 K
T1 construct: A18 RNA recognition motif (residues 1-92 of hnRNP A18 wildtype) was expressed and purified; 6x-His (N, cleaved yes); protein G B1 domain (GB1) (N, cleaved yes); made in house; host or cells: E. coli BLD21(DE3) (so in the source)
Experimental: The hnRNP A18 RRM samples used for compound screening via high field NMR spectroscopy using a series of single-quantum coherence (HSQC) experiments contained 0.1 to 0.2 mM ^15N-labeled hnRNP A18 RRM, ultrapure water, 10% D2O, 5% d6-DMSO and up to 5 mM of each of the forty compounds tested, as based on their solubility. All of the HSQC data were collected at 25° C. with a Bruker Avance 800 US2 NMR spectrometer (800.27 MHz, ^1H) equipped with pulsed-field gradients, four frequency channels, an automatic sample changer, and a TXI cryogenic probe. Backbone resonance assignments in the presence of compounds were achieved via compound titrations and monitoring chemical shift changes until solubility limits were reached (<5 mM compound). Data were processed with NMRPipe (35), and proton chemical shifts and their perturbations upon binding the various compounds were reported with respect to the H2O or HDO signal taken as 4.698 ppm relative to external TSP (0.0 ppm).

[1] = system: Iron Responsive Protein (IRP); assay: RNA band shift (EMSA) with Iron Responsive Protein and Iron Responsive Element (specificity); format: binding; conditions: very high concentration, decreased specificity
hnRNP A18 [2] = molecular target: T2, hnRNP A18 (Homo sapiens, UniProt Q14011); assay: Fluorescence anisotropy competition binding of hnRNP A18 to fluorescein tagged RNA motif 1; parameters: recombinant full length His-hnRNP A18 incubated with biotinylated hnRNP A18 RNA motif 1; conditions: 25° C., 30 min, read-out: IC50, inhibition of hnRNP A18 binding to its cognate RNA
T2 sequence (Q14011 1-172): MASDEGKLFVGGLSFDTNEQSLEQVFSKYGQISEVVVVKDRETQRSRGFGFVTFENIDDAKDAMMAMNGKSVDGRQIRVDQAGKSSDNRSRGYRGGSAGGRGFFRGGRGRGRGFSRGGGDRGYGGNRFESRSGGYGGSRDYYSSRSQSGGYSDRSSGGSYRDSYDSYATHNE
Experimental: Quantitative assessments of hnRNP A18-RNA binding equilibria were performed using fluorescence anisotropy essentially as described (36). Briefly, binding reactions (100 μl) were assembled as described for RNA band shift (EMSAs) but in absence of glycerol and using fluorescein labeled rather than biotin labeled RNA substrates. Reactions were incubated at 25° C. for 30 min; preliminary kinetics runs verified that equilibrium was attained within this period. Subsequently, total reaction anisotropy (At) and fluorescence intensity were measured using a Beacon 2000 Fluorescence Polarization System (Panvera) equipped with a 490-nm excitation filter and a 535-nm emission filter. Drug-dependent changes in At were analyzed by nonlinear regression using the four parameter logistic equation (Eq.1) and PRISM software (GraphPad).
Here, APR represents the intrinsic anisotropy of the protein:RNA complex in the absence of tested compounds, AR is the anisotropy of the RNA ligand in the absence of protein, [drug] is the concentration of each tested compound, and h is the Hill slope.

hnRNP A18 [3] = molecular target: T2, hnRNP A18; assay: RNA band shift (EMSA) with His-hnRNP A18 and biotinylated hnRNP A18 RNA motif 1; format: binding; parameters: recombinant full length His-hnRNP A18 incubated with biotinylated hnRNP A18 RNA motif 1; conditions: increasing concentrations of compound
Experimental: RNA band shifts were performed according to the manufacturer recommendations (LightShift Chemiluminescent RNA EMSA kit, Thermo Scientific, Rockford, Ill.). Briefly recombinant His-hnRNP A18 or His-hnRNP A1 (1 μg) were incubated with biotinylated RNA (hnRNP A18 motif 1, IRE 28 or 51 nucleotides) in 20 μl and run on native polyacrylamide gels transfer to nylon probes and hybridize with streptavidin HRP antibody.

[4] = system: hnRNP A18 targeted 3'UTR (Trx); assay: CAT-Trx 3'UTR reporter assay (CAT ELISA) in LOX-IM VI cells; format: cell-based, human; conditions: increasing amounts of drugs, next day
Experimental: CAT-ELISA was performed as recommended by the manufacturer (Sigma-Aldrich). Briefly, human melanoma LOX-IM VI cells stably transfected with hnRNP A18-GFP (9) were transiently transfected with a CAT reporter vector harboring Trx 3′UTR (16). Twenty-four hours later the cells were distributed in 6 well plates and treated with increasing amounts of drugs. The next day, the cells were washed, and protein extracted. […] Cleavage of the substrate catalyzed by the peroxidase enzyme was measured on a plate reader at 405 nm.
In order to determine whether hnRNP A18 binding to these compounds disrupted its cellular functions, a cell-based assay was developed as a read out for hnRNP A18 RNA binding activity. A reporter vector harboring a hnRNP A18 targeted 3′UTR (Trx; (16)) downstream of a CAT gene was engineered. Binding of hnRNP A18 to the targeted 3′UTR is expected to stabilize the CAT transcript and increase CAT protein production, which is then measured by ELISA.

Aqueous solubility = format: physicochemical
[5] = PAMPA (parallel artificial membrane permeability assay); format: in vitro ADME; conditions: measured at pH 5.0 and 6.8, room temperature, ~4 hours, read-out: Effective permeability Pe
Experimental: The PAMPA assay was performed by Pion (Billerica, Mass.) on 81 compounds selected out of the 264 compounds showing at least 80% similarity to Compound 1, logP<5.0, and 4DBA closer to 0 (>−4.9). The compounds were dissolved at 10 mM in Dimethyl sulfoxide (DMSO, spectrophotometric grade) and filtered (0.2 μm pore size, hyrodophylic PVDF). The assays were carried in the PAMPA STIRWELL plates (lot A0440) and measured at pH 5.0 and 6.8 at room temperature for ˜4 hours on a PAMPA EVOLUTION instrument.

[6] = system: melanoma LOX-IM-VI, colon cancer RKO, Glioblastoma D54, pancreatic cancer MiaPaca, MDA-MD-231 cells; assay: Cell viability of human cancer cells (Apo-Tox-Glo); format: cell-based; conditions: 24 hrs, increasing concentration
Experimental: (§1) Cell Viability and Tumor Growth In Vivo
(§2) Cells viability was measured on normal human mammary epithelial cells (HMEC: ATCC, Gaithersburg, Md.) grown as recommended by the manufacturer and human cancer cells including melanoma LOX-IM-VI, colon cancer RKO, Gliobalstoma D54, pancreatic cancer MiaPaca and triple negative breast cancer MDA-MD-231 cells (5) with the Apo-Tox-Glo kit (Promega, Madison, Wis.) as recommended by the manufacturer. The cells were plated (10,000 cells per well) on a 96 well plate and exposed to increasing concentration of chemical probes for 24 hrs and reacted with the viability reagent as recommended. Fluorescence was measured on a plate reader at 400 nm Ex/505 nm Em.

[7] = system: normal human mammary epithelial cells (HMEC); assay: Cell viability of normal human mammary epithelial cells (Apo-Tox-Glo); format: cell-based; conditions: 24 hrs; for Effect on normal cells viability: Compounds 2 and 3 at doses as high as 150 μM
Experimental: as §1, §2

hnRNP A18 [8] = molecular target: T2, hnRNP A18; assay: Cellular Engagement Thermal Shift Assay (CETSA) in LOX-IM-VI cells; format: cell-based; parameters: expressed in transfected cells; host or cells: LOX-IM-VI human melanoma cells stably transfected with hnRNP A18-GFP; conditions: 3 hours, heat shock at Tagg(75), read-out: EC50, binding and stabilization of hnRNP A18 in cells
Experimental: Cellular Thermal Shift Assay (CETSA)
Cellular thermal shift assay (CETSA) was performed with LOX-IM-VI hnRNP
A18 cells cultured in RPMI medium supplemented with 10% FBS. For an initial determination of the melting profile of hnRNP A18, cells dispensed into 96-well PCR plate in the above medium (5000 cells/well/50 μl), were subjected to temperature gradient (40-60° C.) for 10 min. Cold non-denaturing lysis buffer (PBS supplemented with 0.1% TritonX-100 and 1× protease inhibitors) was added to wells, and the plate was rocked and incubated for 15 min on ice. Subsequently, centrifugation was performed at 14.000 rpm to sediment the unstable protein content. Supernatant was collected, and SDS-PAGE gel was run, and immuno-detection was performed using poly-clonal anti-hnRNP A18 antibody (Sigma, CIRP). hnRNP A18 band was quantified on LI-COR C-Digit Blot Scanner, and subsequently Tagg(50) and Tagg(75) values were calculated for hnRNP A18.
In a subsequent run, cells were treated at various doses (80, 40, 20, 10, 5, 2.5 and 1.25 μM) of Compound 2 (Chembridge 7646184), Compound 4 (OTAVA 219853) and Compound 5 (VITAS STK508411) together with DMSO control, for 3 hours. Cells were then subjected to heat shock at Tagg(75) for 10 min, and unstable protein was removed by centrifugation step. Following an immuno-blotting step, bands of stable hnRNP A18 protein was quantified, normalized to loading control and plotted using GraphPad Prism software. EC50 values of Compound 2, Compound 4 and Compound 5 compounds were calculated.

Concentration at which binding disruption of IRP to Iron Responsive Element was observed [1] | pIC50 (hnRNP A18 [2]) | Aqueous solubility (Aqueous solubility) | Papp [5] | pEC50 (hnRNP A18 [8]) | SMILES | Chemical shift perturbations of hnRNP A18 RRM residues (hnRNP A18 RRM) | Disruption of hnRNP A18 RNA binding activity by band shift (hnRNP A18 [3]) | Production of CAT protein [4] | Effect on cancer cells viability [6] | Effect on normal cells viability [7] | Toxicity to normal cells [7]
5.5 mM | 5.19 |  |  |  | Cc1nc(NC(=O)c2ccccc2)sc1-c1csc(Nc2ccc(O)c(C(=O)O)c2)n1 [Compound 1] | most significant chemical shift perturbations | out-competed hnRNP A18 RNA consensus motif |  |  |  | 
 |  | Low aqueous solubility |  |  | COc1cccc(C(=O)Nc2nc(-c3ccc(C)cc3)c(NC(=O)c3ccco3)s2)c1 [Compound 6] |  | specifically competed for hnRNP A18 binding activity | could only reduce CAT protein levels at the highest concentration |  |  | 
 | 4.41 |  | > 20 ×10⁻⁶ cm/s | 5.57 | COc1ccccc1C(=O)Nc1nc(-c2ccc(C)cc2)c(NC(C)=O)s1 [Compound 4] |  | specifically disrupt hnRNP A18 RNA binding activity |  | preferentially killing cancer cells although less efficiently than Compounds 2 and 3 | no significant effect on normal cells viability | 
 | 5.54 |  | > 20 ×10⁻⁶ cm/s | 4.62 | Cc1sc(NC(=O)c2ccccc2)nc1OC(=O)c1ccccc1 [Compound 5] |  | specifically disrupt hnRNP A18 RNA binding activity |  | least effective |  | 20-40%
 | 4.82 |  | > 20 ×10⁻⁶ cm/s | 5.33 | CC(=O)Oc1ccccc1C(=O)Nc1ccccc1Sc1ncnc2scc(-c3ccccc3)c12 [Compound 2] |  | specifically disrupt hnRNP A18 RNA binding activity |  | killing all cancer cell lines tested | without affecting the viability of normal human epithelial cells | 
 | 4.89 |  | > 20 ×10⁻⁶ cm/s |  | CC(=O)Oc1cccc(C(=O)Nc2ccc(C(=O)Nc3nccs3)cc2)c1 [Compound 3] |  | specifically disrupt hnRNP A18 RNA binding activity |  | killing all cancer cell lines tested | without affecting the viability of normal human epithelial cells | 
